This passage reports EC50, IC50 and outcome results from PubChem BioAssay AID179 (DTP/NCI, 2004).

In the assay the test system is CEM cells HIV-1 protection, formazan growth assay. Briefly: NCI AIDS Antiviral Assay. The following applies: for IC50: measured here: growth of uninfected CEM cells. In outline:
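Screen of anti-HIV-1 activity in human CEM cells using a formazan-based growth measurement at five drug concentrations. Hits with 50% or greater protection were repeated, and confirmation required reproducible complete protection.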

Each structure is given as a SMILES string. Activity calls are given as the source filed them.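 How the source made its calls: active means compounds giving half or more protection of infected cells from virus-caused growth loss, again on retest; inactive means the rest.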 Where a SMILES comes first, the peptide text is derived from it. The star is where a group is joined. Cbz = O=C(OCc1ccccc1)*

Broadly, the EC50 is the concentration giving half of the maximal effect. A word on the IC50: it is the midpoint of a concentration-inhibition curve. Low readings indicate greater potency, high ones weaker potency. Regarding `Clc1ccc(-c2c(C3=NCCCN3)nnn2-c2ccccc2)cc1`, the EC50 is greater than 389 µM and the IC50 is greater than 389 µM. In the case of `CC1=NC(=Cc2ccccc2O)C(=O)N1n1c(-c2ccccc2)nc2ccccc2c1=O`, the EC50 was greater than 200 µM and the IC50 is 12.6 µM. The corresponding values for `CC1(C)SCC(COC(=O)c2ccccc2)S1` (stereo not drawn) are greater than 200 µM and greater than 200 µM. The like results for `CCOC(=O)CC(NC(=O)C(CC(=O)OC)NC(=O)C(CC(=O)OC)NC(=O)C(CC(=O)OC)NC(=O)C(CC(=O)OC)NC(=O)C(CC(=O)OC)NC(=O)C(CC(=O)OC)NC(=O)C(CC(=O)OC)NC(=O)OCc1ccccc1)C(=O)OCC` (stereo not drawn) (Cbz-D(OMe)D(OMe)D(OMe)D(OMe)D(OMe)D(OMe)D(OMe)D(OEt)-OEt; configuration not given here) were, in that order, greater than 100 µM and greater than 100 µM. For the compound `c1ccc(SC(CCCCOC2CCCCO2)Sc2ccccc2)cc1` (stereo not drawn), the outcome was inactive. Consider `Cc1ccc(S(=NS(=O)(=O)c2ccc(C)cc2)c2ccc(C)cc2)cc1`, for which the EC50 is greater than 49 µM and the 50% inhibitory concentration (IC50) was greater than 49 µM. As for `COc1ccc(-c2cc(-c3ccc(Cl)cc3)n(C3OC(CO)C(O)C(O)C3O)c(=S)c2C#N)cc1` (stereo not drawn), the EC50 is greater than 200 µM and the IC50 was found to be 7.76 µM. For the compound `O=C1OC(=O)C2C3CCCCC3=C3CCCCC3C12` (stereo not drawn), the EC50 was greater than 200 µM and the concentration for half-maximal inhibition (IC50) is greater than 200 µM. Take `O=[N+]([O-])c1cccc(-c2ncnc(-c3cccc([N+](=O)[O-])c3)n2)c1`: the EC50 is greater than 100 µM and the IC50 is greater than 100 µM. Regarding `CN(C)C=NCc1ccc2c(c1)OCO2`, the EC50 was 51.3 µM and the IC50 is 479 µM.

Turning to `COc1ccc(-c2cc(-c3ccccc3)n(C3OCC(OC(C)=O)C(OC(C)=O)C3OC(C)=O)c(=S)c2C#N)cc1` (stereo not drawn), the EC50 was greater than 200 µM and the IC50 is 43.7 µM. The like results for `NC(=O)c1ncn(C2C=CC(CP(=O)(O)O)C2)c1N` (stereo not drawn) were, in that order, greater than 200 µM and greater than 200 µM. The corresponding values for `CC(=O)[O-].COc1cccc(/C=N\[N-]C(=O)c2ccncc2)c1.[Co+2].[OH3+].[OH3+].c1ccncc1` are greater than 100 µM and 57.5 µM. The like results for `Cc1ccc2cc1NC(=O)N1CCN(CC1)C(=O)Nc1cc(ccc1C)NC(=O)N1CCN(CC1)C(=O)N2` were, in that order, greater than 3.8 µM and greater than 3.8 µM. Turning to `Cc1cc(S(=O)(=O)Nc2nc3ccccc3c(=O)n2N)c(S)cc1Cl`, the 50% effective concentration (EC50) is 40.7 µM and the IC50 is 77.6 µM.

For `c1ccc(-c2nnc(CCCCCCCCc3nnc(-c4ccccc4)o3)o2)cc1`, the EC50 was greater than 200 µM and the IC50 stood at 158 µM.

Turning to `CC(C)(O)/C=C/C(=O)[C@](C)(O)[C@H]1[C@H](O)C[C@@]2(C)[C@@H]3CC=C4[C@@H](C=C(O)C(=O)C4(C)C)[C@]3(C)C(=O)C[C@]12C`, the EC50 was greater than 0.2 µM and the 50% inhibitory concentration (IC50) is 0.0324 µM. The like results for `CCOC(=O)/C(=C\c1ccnc2ccccc12)P(=O)(OCC)OCC` were, in that order, greater than 200 µM and 3.31 µM. In the case of `CC(=O)OCC(OC(C)=O)C(OC(C)=O)C(OC(C)=O)C(=O)CNn1c(-c2ccccc2Cl)nc2ccc(Br)cc2c1=O` (stereo not drawn), the result was inactive. `C=C=C(CC(CC=C(C)C)(C(C)=O)C(=O)OC(C)(C)C)S(=O)(=O)c1ccccc1` (stereo not drawn): the EC50 is greater than 32.4 µM and the IC50 came to 6.17 µM. As to `N/N=C(\c1nc2ccc([N+](=O)[O-])cc2[nH]c1=O)C(O)c1ccc(Cl)c(Cl)c1` (stereo not drawn), the EC50 is greater than 339 µM and the IC50 amounted to 145 µM. The like results for `CC(C)(Oc1ccc2c(=O)cc(-c3ccc(Cl)cc3)oc2c1)C(=O)Nc1c(Cl)cccc1Cl` were, in that order, greater than 10.2 µM and greater than 10.2 µM. For `COc1ccc(NC(C)=O)cc1C1CCC(=O)N1` (stereo not drawn), the outcome was inactive. As for `Cc1ccc(NC(=O)/C(=N/NC(=O)CC#N)C2C(=O)N(c3ccccc3)N=C2N)cc1C` (stereo not drawn), the EC50 is greater than 219 µM and the IC50 turned out to be 37.2 µM. The corresponding values for `O=C1C2=C(c3ccccc31)C(c1ccc(F)cc1)N1C(=O)CCSC1=N2` (stereo not drawn) are greater than 37.2 µM and greater than 37.2 µM. The like results for `C[N+](C)(C)CCOP(=O)([O-])OCCNC(=O)c1ccc2ccccc2c1` were, in that order, greater than 200 µM and greater than 200 µM. Turning to `Nc1ccc(C(=O)Nc2ccc(/C=C/c3ccc(NC(=O)c4ccc(N)cc4S(=O)(=O)O)cc3S(=O)(=O)O)c(S(=O)(=O)O)c2)c(S(=O)(=O)O)c1`, the EC50 is 22.4 µM and the IC50 amounted to 89.1 µM. Consider `NC(=O)c1cc([N+](=O)[O-])cc([N+](=O)[O-])c1`, for which the EC50 was greater than 200 µM and the half-inhibitory concentration (IC50) was 40.7 µM. Regarding `N.N.N.N.N.[Co+3].[I-].[N-]=[N+]=[N-]`, the outcome was inactive. Regarding `CCc1cccc(CC)c1N=C(NC(=O)c1ccc(Br)cc1)SC`, the EC50 is greater than 200 µM and the concentration for half-maximal inhibition (IC50) is greater than 200 µM.

Consider `CC1(C)CC(=O)C(/C(=N/NC(=S)NN)C(=O)Nc2nc3ccc([N+](=O)[O-])cc3s2)C(=O)C1`, for which the EC50 is greater than 53.7 µM and the IC50 is greater than 53.7 µM. For `Cc1cn([C@H]2[C@@H](CO)C[C@H]2O)c(=O)[nH]c1=O`, the EC50 was greater than 200 µM and the IC50 was greater than 200 µM. With `CC(=O)NNC=N/C(C#N)=C(\N)C#N`, the EC50 was greater than 200 µM and the IC50 was greater than 200 µM. With `Cc1c(C(=O)CSc2nc3ccccc3[nH]2)c(=O)n(-c2ccccc2)n1C`, the EC50 was greater than 95.5 µM and the concentration for half-maximal inhibition (IC50) is greater than 95.5 µM.

In the case of `Brc1ccc2c(-c3csc(-c4c[nH]c5ccccc45)n3)c[nH]c2c1`, the EC50 is greater than 200 µM and the IC50 was determined as 10.7 µM. Turning to `COC(=O)/C=C\C(C#N)(C#N)N=Cc1ccsc1`, the EC50 was greater than 2 µM and the IC50 is 0.759 µM. The like results for `O=C(CCBr)N1CCN(C(=O)CCBr)CC1` were, in that order, greater than 708 µM and 9.33 µM. The like results for `COC(=O)C1C(C(=O)OC)C2(OC)c3ccccc3-c3ccccc3C12` (stereo not drawn) were, in that order, greater than 200 µM and 21.4 µM. `CN(C)C1C(=O)C(C(=O)NCNC(CO)(CO)CO)=C(O)C2(O)C(=O)C3=C(O)c4c(O)cccc4C(C)(O)C3CC12` (stereo not drawn): the EC50 is greater than 200 µM and the 50% inhibitory concentration (IC50) is 132 µM. In the case of `CCOC(=O)c1cc2c(=O)cccnc2o1`, the EC50 was greater than 52.5 µM and the half-maximal inhibitory concentration (IC50) was greater than 52.5 µM.

`COC(=O)c1onc(C2OC(C)(C)OC2C(O)COC(c2ccccc2)(c2ccccc2)c2ccccc2)c1C(=O)OC` (stereo not drawn): the EC50 was greater than 200 µM and the IC50 is 15.1 µM. The like results for `O=C1c2cc3c(cc2NC(c2ccccc2F)C1O)OCO3` (stereo not drawn) were, in that order, greater than 200 µM and 12 µM. The like results for `COC(=Nc1ccccc1)SSC(C)C` were, in that order, greater than 200 µM and 2.82 µM. In the case of `CN(C)NC(=S)NC12CC3CC(CC(C3)C1)C2`, the outcome was inactive. For `CCCCS(=O)(=O)CCC(N)C(=O)O` (stereo not drawn), the EC50 is greater than 100 µM and the concentration for half-maximal inhibition (IC50) is greater than 100 µM. On to `CCOC(=O)c1ccc(C(=O)/C(C#N)=C2\CCCN2)[nH]1`, for which the EC50 was greater than 200 µM and the 50% inhibitory concentration (IC50) amounted to 89.1 µM.

Regarding `Cc1cc(Br)ccc1N=Nc1c(C)nn(-c2ccccc2)c1-c1ccccc1`, the outcome was inactive. With `CC(=O)NC1C(OCc2ccccc2)OC(COC(=O)CCCCCCCCCCNC(=O)CCNc2ccc([N+](=O)[O-])c3[nH]c4ccc(O)cc4c(=O)c23)C(O)C1OC(C)C(=O)N[C@H](C(=O)N[C@H](CCC(=O)O)C(N)=O)C(C)C` (stereo partly drawn), the EC50 is greater than 224 µM and the IC50 was determined as 87.1 µM.

For `CCCC(=O)NC(Nc1ccc(S(=O)(=O)Nc2cc(C)on2)cc1)(C(=O)OCC)C(F)(F)F` (stereo not drawn), the result was inactive. For `C/C(=C\C=C\C(C)C)C1CCC(C)(NC=O)CC1` (stereo not drawn), the result was inactive. `CC1(c2cccc(C3CC4(CCC3=O)OCCCCO4)c2)OCCO1` (stereo not drawn): the EC50 is greater than 200 µM and the 50% inhibitory concentration (IC50) is greater than 200 µM.

For `COc1ccccc1/C=C(/C(C)=O)C(=O)c1ccccc1`, the EC50 was greater than 25.7 µM and the concentration for half-maximal inhibition (IC50) is greater than 25.7 µM. In the case of `COc1ccc(-n2cnc3c(NC(Cc4ccccc4)C(=O)O)ncnc32)cc1` (stereo not drawn), the EC50 is greater than 200 µM and the IC50 came to 2 µM.

For `CC(=O)NC(CCC(=O)C=[N+]=N)C(=O)O` (stereo not drawn), the EC50 was greater than 200 µM and the half-maximal inhibitory concentration (IC50) is 29.5 µM. The corresponding values for `COc1cc(C)cc2c(-c3c(O)cc(O)c4c3CC(C)N[C@H]4C)cc(-c3cc(-c4c(O)cc(O)c5c4CC(C)N[C@H]5C)c4cc(C)cc(OC)c4c3O)c(O)c12` (stereo partly drawn) are 38 µM and 166 µM. The like results for `CCc1c(Cc2ccccc2)n(COCCC[Se]c2ccccc2)c(=O)[nH]c1=O` were, in that order, 2.82 µM and 18.2 µM. As to `Cc1ccc(C(=O)/C=C/c2ccccc2O)c(C)c1`, the EC50 was 91.2 µM and the IC50 came to 102 µM. The corresponding values for `C(=C\c1cnc2ccccc2n1)/c1ccc2c(c1)OCO2` are greater than 200 µM and greater than 200 µM. The corresponding values for `O=C(c1ccc(Cl)cc1)c1ccc(OCCSCCCCCCCCCCSCCOc2ccc(C(=O)c3ccc(Cl)cc3)cc2)cc1` are greater than 13.8 µM and greater than 13.8 µM. For the compound `CCC(=O)CC(=O)CCC(=O)Nc1cc(C)ccc1C`, the outcome was inactive. As to `CSc1nc(Br)nc2ncn(C3CC(Oc4ccc(C)cc4)C(COc4ccc(C)cc4)O3)c12` (stereo not drawn), the EC50 was greater than 200 µM and the half-inhibitory concentration (IC50) was 44.7 µM. The like results for `Nc1nc(N)c(-c2ccccc2)c(C(=O)Nc2ccccc2)n1` were, in that order, greater than 407 µM and greater than 407 µM. As for `Cc1ccc(C)c(N2C(=O)C(=O)C(c3nc4ccccc4s3)C(=O)C2=O)c1`, the outcome was inactive. Take `O=C1c2ccccc2-c2oc(=O)c3ccccc3c21`: the EC50 is greater than 40.7 µM and the IC50 was greater than 40.7 µM.

For the compound `CCC(C)C(=O)O[C@H]1[C@H](OC(C)=O)[C@H](OC(C)=O)[C@@]2(COC(C)=O)C(OC(C)=O)C(=O)[C@@H]3[C@@H](OC(C)=O)[C@]2(O[C@@]3(C)COC(=O)c2ccccc2)[C@@]1(C)O` (stereo partly drawn), the outcome was inactive. As to `NS(=O)(=O)c1ccc2c(c1)OCCOCCOCCOCCO2`, the EC50 was greater than 200 µM and the IC50 is greater than 200 µM. As for `N#C/C(N)=C(\C#N)N=CN`, the EC50 is greater than 200 µM and the IC50 is greater than 200 µM.
